A short description of the data set: Solubility in processing solvents (Table 1, Compound Properties). Particulars: for Solubility anisole: solvent anisole; for Solubility toluene: solvent toluene. In kind it is physicochemical. As to the method:
It is also noted that solubility of the chrysene derivative materials in processing solvents can be adjusted to satisfy solution processing requirements. In some embodiments the solubility of chrysene derivatives in toluene and anisole is higher than 20 mg per ml of solvent. High solubility allows for better solution processing of electroactive devices.

Solubility anisole, Solubility toluene and solubility properties data for five compounds are collected here from patent publication US8968883B2, “Chrysene derivative materials” (E I du Pont de Nemours and Company, priority 2009, dated 2015).

Converted amounts (≈) assume the structure as drawn.

`c1ccc(-c2ccc(N(c3ccc(-c4cccc(-c5ccccc5)c4)cc3)c3ccc4ccc5c6ccccc6ccc5c4c3)cc2)cc1` [Compound C1] gave a Solubility anisole of 23.9 mg/mL (≈ 38.3 mM) and a Solubility toluene of 24.6 mg/mL (≈ 39.4 mM).

Consider `[2H]c1c([2H])c([2H])c(-c2c([2H])c([2H])c(N(c3c([2H])c([2H])c(-c4c([2H])c([2H])c([2H])c(-c5c([2H])c([2H])c([2H])c([2H])c5[2H])c4[2H])c([2H])c3[2H])c3c([2H])c([2H])c4c([2H])c([2H])c5c6c([2H])c([2H])c([2H])c([2H])c6c([2H])c([2H])c5c4c3[2H])c([2H])c2[2H])c([2H])c1[2H]` [Compound C2, Perdeutero-N-([1,1′-biphenyl]-4-yl)-N-([1,1′:3′,1″-terphenyl]-4-yl)chrysen-3-amine], for which, for the setting “compared with compound C1 of Table 1”, the solubility properties result is “very similar to those of compound C1”. In turn, `CC(C)(C)c1ccc(N(c2ccc(-c3ccccc3)cc2)c2ccc3ccc4c5ccccc5ccc4c3c2)cc1` [Compound C3, N-(biphenyl-4-yl)-N-(4-tert-butylphenyl)chrysene-3-amine] returned a Solubility anisole of 22.4 mg/mL (≈ 42.4 mM) and a Solubility toluene of 22.2 mg/mL (≈ 42.1 mM). In the same order, the values of `Cc1ccc(N(c2ccc(-c3ccc(-c4ccccc4)cc3)cc2)c2ccc3ccc4c5ccccc5ccc4c3c2)c(C)c1` [Compound C4] are 3.6 mg/mL (≈ 6.25 mM) and 1.0 mg/mL (≈ 1.74 mM). Compound `c1ccc(-c2ccc(N(c3ccc(-c4cccc5ccccc45)cc3)c3ccc4ccc5c6ccccc6ccc5c4c3)cc2)cc1` [Compound C5] registered a Solubility anisole of 23.7 mg/mL (≈ 39.6 mM) and a Solubility toluene of 24.4 mg/mL (≈ 40.8 mM).
